Test results from patent US12441691B2 (Cytokinetics, Inc., priority 2020, dated 2025).

Each compound was assayed on rabbit skeletal myofibrils (fast skeletal myofibrils) (assay: Activation of fast skeletal myofibrils (PUMA assay, AC1.4)). Settings: calcium at pCa25, AC1.4 = concentration at which the compound increased the enzymatic activity.
Type: biochemical
Outline: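 In 12 mM PIPES pH 6.8 with 2 mM MgCl2 and 1 mM DTT, Triton-washed rabbit skeletal myofibrils were run at the pCa25 calcium level. Myosin-made ADP was recycled through a PK/LDH coupled system; NADH loss read at 340 nm.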
Compound CC[C@H](C)[C@H]1C(=O)Nc2ccccc2CN1C(=O)N[C@H]1CCC(=O)NC1 [Compound 219, (S)-3-((S)-sec-butyl)-2-oxo-N-((S)-6-oxopiperidin-3-yl)-1,2,3,5-tetrahydro-4H-benzo[e][1,4]diazepine-4-carboxamide] has an AC1.4 of 2.10 µM. CC[C@H](C)[C@H]1C(=O)Nc2cnccc2CN1c1c(N2CC(O)C2)c(=O)c1=O [Compound 375, 3-((S)-3-((S)-sec-butyl)-2-oxo-1,2,3,5-tetrahydro-4H-pyrido[3,4-e][1,4]diazepin-4-yl)-4-(3-hydroxyazetidin-1-yl)cyclobut-3-ene-1,2-dione] gave an AC1.4 of 0.26 µM. Cc1nsc(N2Cc3ccccc3NC(=O)[C@@H]2C(C)C)n1 [Compound 324, (S)-3-isopropyl-4-(3-methyl-1,2,4-thiadiazol-5-yl)-1,3,4,5-tetrahydro-2H-benzo[e][1,4]diazepin-2-one] gave an AC1.4 of 1.16 µM. Work on CC[C@H](C)[C@H]1C(=O)Nc2ccccc2CN1C(=O)N1CC(N2CCOCC2)C1 [Compound 266, (S)-3-((S)-sec-butyl)-4-(3-morpholinoazetidine-1-carbonyl)-1,3,4,5-tetrahydro-2H-benzo[e][1,4]diazepin-2-one] yielded an AC1.4 of 2.47 µM. Work on CC[C@H](C)[C@H]1C(=O)Nc2ccccc2CN1C(=O)NC1(C#N)CC1 [Compound 273, (S)-3-((S)-sec-butyl)-N-(1-cyanocyclopropyl)-2-oxo-1,2,3,5-tetrahydro-4H-benzo[e][1,4]diazepine-4-carboxamide] yielded an AC1.4 of 3.02 µM. CC[C@H](C)[C@H]1C(=O)Nc2ccccc2CN1C(=O)N1CCC[C@H](NS(C)(=O)=O)C1 [Compound 247, N-((S)-1-((S)-3-((S)-sec-butyl)-2-oxo-2,3,4,5-tetrahydro-1H-benzo[e][1,4]diazepine-4-carbonyl)piperidin-3-yl)methanesulfonamide] showed an AC1.4 of 2.49 µM. For CC[C@H](C)[C@H]1C(=O)Nc2ccccc2CN1C(=O)c1ccc(=O)[nH]c1 [Compound 155, (S)-3-((S)-sec-butyl)-4-(6-oxo-1,6-dihydropyridine-3-carbonyl)-1,3,4,5-tetrahydro-2H-benzo[e][1,4]diazepin-2-one], the AC1.4 was 0.54 µM. CC[C@H](C)[C@H]1C(=O)Nc2ccccc2CN1c1cc(=O)n(C)cn1 [Compound 115, (S)-3-((S)-sec-butyl)-4-(1-methyl-6-oxo-1,6-dihydropyrimidin-4-yl)-1,3,4,5-tetrahydro-2H-benzo[e][1,4]diazepin-2-one] showed an AC1.4 of 0.08 µM. Compound CC[C@H](C)[C@H]1C(=O)Nc2ccccc2CN1S(=O)(=O)c1ccc(F)cc1 [Compound 89, (S)-3-((S)-sec-butyl)-4-((4-fluorophenyl)sulfonyl)-1,3,4,5-tetrahydro-2H-benzo[e][1,4]diazepin-2-one] has an AC1.4 of 0.18 µM. CC[C@H](C)[C@H]1C(=O)Nc2ccccc2CN1c1nn[nH]n1 [Compound 4, (S)-3-((S)-sec-Butyl)-4-(2H-tetrazol-5-yl)-1,3,4,5-tetrahydro-2H-benzo[e][1,4]diazepin-2-one] showed an AC1.4 of 0.21 µM. CC[C@H](C)[C@H]1C(=O)Nc2c(F)cccc2CN1C(N)=O [Compound 44, (S)-3-((S)-sec-butyl)-9-fluoro-2-oxo-1,2,3,5-tetrahydro-4H-benzo[e][1,4]diazepine-4-carboxamide] gave an AC1.4 of 0.26 µM. With CC[C@H](C)[C@H]1C(=O)Nc2ccccc2CN1C(=O)c1cncnc1 [Compound 191, (S)-3-((S)-sec-butyl)-4-(pyrimidine-5-carbonyl)-1,3,4,5-tetrahydro-2H-benzo[e][1,4]diazepin-2-one] the AC1.4 was 0.19 µM. CC[C@H](C)[C@H]1C(=O)Nc2ccccc2CN1C(=O)c1ccc(C(=O)O)[nH]1 [Compound 166, 5-((S)-3-((S)-sec-butyl)-2-oxo-2,3,4,5-tetrahydro-1H-benzo[e][1,4]diazepine-4-carbonyl)-1H-pyrrole-2-carboxylic acid] showed an AC1.4 of 0.45 µM. CC[C@H](C)[C@H]1C(=O)Nc2ccccc2CN1C(=O)c1cc2nccnc2[nH]1 [Compound 181, (S)-3-((S)-sec-butyl)-4-(5H-pyrrolo[2,3-b]pyrazine-6-carbonyl)-1,3,4,5-tetrahydro-2H-benzo[e][1,4]diazepin-2-one] was tested, and the AC1.4 was 0.04 µM. CC[C@H](C)[C@H]1C(=O)Nc2ccccc2CN1C(=O)N(C)c1cnccn1 [Compound 233, (S)-3-((S)-sec-butyl)-N-methyl-2-oxo-N-(pyrazin-2-yl)-1,2,3,5-tetrahydro-4H-benzo[e][1,4]diazepine-4-carboxamide] gave an AC1.4 of 2.16 µM. In the case of CC[C@H](C)[C@H]1C(=O)Nc2ccccc2CN1C(=O)Nc1ccc(=O)n(CC)c1 [Compound 253, (S)-3-((S)-sec-butyl)-N-(1-ethyl-6-oxo-1,6-dihydropyridin-3-yl)-2-oxo-1,2,3,5-tetrahydro-4H-benzo[e][1,4]diazepine-4-carboxamide], the AC1.4 is reported as 0.08 µM. Work on CC[C@H](C)[C@H]1C(=O)Nc2ccccc2CN1C(=O)N1CCN(S(C)(=O)=O)CC1 [Compound 246, (S)-3-((S)-sec-butyl)-4-(4-(methylsulfonyl)piperazine-1-carbonyl)-1,3,4,5-tetrahydro-2H-benzo[e][1,4]diazepin-2-one] yielded an AC1.4 of 1.64 µM. Work on CC(C)[C@H]1C(=O)Nc2ccccc2CN1C(=O)c1cc[nH]c(=O)c1 [Compound 327, (S)-3-isopropyl-4-(2-oxo-1,2-dihydropyridine-4-carbonyl)-1,3,4,5-tetrahydro-2H-benzo[e][1,4]diazepin-2-one] yielded an AC1.4 of 1.50 µM. Work on CC[C@H](C)[C@H]1C(=O)Nc2ccccc2CN1c1noc(=O)[nH]1 [Compound 25, 3-((S)-3-((S)-sec-Butyl)-2-oxo-1,2,3,5-tetrahydro-4H-benzo[e][1,4]diazepin-4-yl)-1,2,4-oxadiazol-5(4H)-one] yielded an AC1.4 of 0.12 µM. CC(=O)N1Cc2ccccc2NC(=O)[C@@H]1C1CCCCC1 [Compound 28, (S)-4-acetyl-3-cyclohexyl-1,3,4,5-tetrahydro-2H-benzo[e][1,4]diazepin-2-one] gave an AC1.4 of 0.28 µM. Work on CC[C@H](C)[C@H]1C(=O)Nc2ccccc2CN1C(=O)N1CC(N2CCN(C)CC2)C1 [Compound 265, (S)-3-((S)-sec-butyl)-4-(3-(4-methylpiperazin-1-yl)azetidine-1-carbonyl)-1,3,4,5-tetrahydro-2H-benzo[e][1,4]diazepin-2-one] yielded an AC1.4 of 0.70 µM. In the case of CC[C@H](C)[C@H]1C(=O)Nc2ccccc2CN1CC#N [Compound 316, 2-((S)-3-((S)-sec-butyl)-2-oxo-1,2,3,5-tetrahydro-4H-benzo[e][1,4]diazepin-4-yl)acetonitrile], the AC1.4 is reported as 1.07 µM. With CC[C@H](C)[C@H]1C(=O)Nc2ccccc2CN1C(=O)N1CC(C(N)=O)C1 [Compound 250, 1-((S)-3-((S)-sec-butyl)-2-oxo-2,3,4,5-tetrahydro-1H-benzo[e][1,4]diazepine-4-carbonyl)azetidine-3-carboxamide] the AC1.4 was 0.60 µM. CC[C@H](C)[C@H]1C(=O)Nc2ccccc2CN1C(=O)c1cc2ncccc2[nH]1 [Compound 150, (S)-3-((S)-sec-butyl)-4-(1H-pyrrolo[3,2-b]pyridine-2-carbonyl)-1,3,4,5-tetrahydro-2H-benzo[e][1,4]diazepin-2-one] gave an AC1.4 of 0.03 µM. Compound CC[C@H](C)[C@H]1C(=O)Nc2ccccc2CN1C(=O)NCCC(N)=O [Compound 205, (S)-N-(3-amino-3-oxopropyl)-3-((S)-sec-butyl)-2-oxo-1,2,3,5-tetrahydro-4H-benzo[e][1,4]diazepine-4-carboxamide] has an AC1.4 of 1.58 µM. For CC[C@H](C)[C@H]1C(=O)Nc2ccccc2CN1c1nc(O)cc(=O)[nH]1 [Compound 23, (S)-3-((S)-sec-Butyl)-4-(4-hydroxy-6-oxo-1,6-dihydropyrimidin-2-yl)-1,3,4,5-tetrahydro-2H-benzo[e][1,4]diazepin-2-one], the AC1.4 was 0.16 µM. In the case of CC[C@H](C)[C@H]1C(=O)Nc2ccccc2CN1CCOC [Compound 310, (S)-3-((S)-sec-butyl)-4-(2-methoxyethyl)-1,3,4,5-tetrahydro-2H-benzo[e][1,4]diazepin-2-one], the AC1.4 is reported as 4.17 µM. CC[C@H](C)[C@H]1C(=O)Nc2ccccc2CN1C(=O)Nc1ccn(CCOC)n1 [Compound 299, (S)-3-((S)-sec-butyl)-N-(1-(2-methoxyethyl)-1H-pyrazol-3-yl)-2-oxo-1,2,3,5-tetrahydro-4H-benzo[e][1,4]diazepine-4-carboxamide] was tested, and the AC1.4 was 0.18 µM. For CC[C@H](C)[C@H]1C(=O)Nc2ccccc2CN1C(=O)c1cc2cnccc2[nH]1 [Compound 83, (S)-3-((S)-sec-butyl)-4-(1H-pyrrolo[3,2-c]pyridine-2-carbonyl)-1,3,4,5-tetrahydro-2H-benzo[e][1,4]diazepin-2-one], the AC1.4 was 0.03 µM. Compound CC(=O)N1Cc2ccccc2NC(=O)[C@@H]1C1CCCCCC1 [Compound 91, (S)-4-acetyl-3-cycloheptyl-1,3,4,5-tetrahydro-2H-benzo[e][1,4]diazepin-2-one] has an AC1.4 of 0.08 µM. Compound CC[C@H](C)[C@H]1C(=O)Nc2ccccc2CN1C(=O)N1CCC[C@H](CO)C1 [Compound 303, (S)-3-((S)-sec-butyl)--4-((S)-3-(hydroxymethyl)piperidine-1-carbonyl)-1,3,4,5-tetrahydro-2H-benzo[e][1,4]diazepin-2-one] has an AC1.4 of 0.89 µM. In the case of CC[C@H](C)[C@H]1C(=O)Nc2cc(F)ccc2CN1C(=O)NC1CCN(CCO)CC1 [Compound 356, (S)-3-((S)-sec-butyl)-8-fluoro-N-(1-(2-hydroxyethyl)piperidin-4-yl)-2-oxo-1,2,3,5-tetrahydro-4H-benzo[e][1,4]diazepine-4-carboxamide], the AC1.4 is reported as 0.24 µM. Work on CC[C@H](C)[C@H]1C(=O)Nc2cncc(F)c2CN1c1c(N)c(=O)c1=O [Compound 366, 3-amino-4-((S)-3-((S)-sec-butyl)-6-fluoro-2-oxo-1,2,3,5-tetrahydro-4H-pyrido[3,4-e][1,4]diazepin-4-yl)cyclobut-3-ene-1,2-dione] yielded an AC1.4 of 0.21 µM.
